Columns and labels:
Details in all cases: 48 h
P12-Ichikawa [1] = assay: cell viability relative to DMSO control; higher = less cytotoxic
In short: (§1)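 Cells were incubated for 48 h at 37°C before CellTiter-Glo One luminescence was read. The cells were NOMO1 or SEM (500 cells/well) or P12-Ichikawa (1000 cells/well) leukemia cells, adapted for at least four passages in each medium and seeded in 1536-well plates (5 μl). Dosing used library compounds in DMSO applied by pin over 11 threefold points, 47 μM to 0.79 nM. Viability is the per-plate percentage of DMSO wells, with cell-free wells as background.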

SEM cells [2] = assay: as above
In short: as §1

NOMO1 [3] = assay: as above
In short: as §1

P12-Ichikawa [4] = assay: AUC of viability dose-response curve (% viability x log10 dose units); higher = less sensitive
In short: (§2)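 Medium-adapted leukemia cells in 1536-well plates, at 500 or 1000 cells/well, were incubated for 48 h at 37°C with library compounds in DMSO at 11 threefold doses from 47 μM to 0.79 nM. CellTiter-Glo One luminescence normalised per plate to DMSO and cell-free wells was fitted with a four-parameter log-logistic model over log10 doses. Area under the curve was integrated from this fit by trapezoidal rule, with curves beyond full viability scaled and failed quality-control curves removed.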

SEM cells [5] = assay: as above
In short: as §2

NOMO1 [6] = assay: as above
In short: as §2

CC1CCC(C(=O)N(c2cc(C#CC(C)(C)C)sc2C(=O)O)C2CCC(O)CC2)CC1 (centres undefined)
cell viability [%]
Details | NOMO1 [3] | P12-Ichikawa [1] | SEM cells [2]
HPLM + 10% dialyzed FBS, 0.000781 µM | 108 | 102 | 106
HPLM + 10% dialyzed FBS, 0.00234 µM | 98.7 | 91.2 | 109
HPLM + 10% dialyzed FBS, 0.00702 µM | 111 | 98.4 | 99.2
HPLM + 10% dialyzed FBS, 0.0211 µM | 113 | 95.9 | 103
HPLM + 10% dialyzed FBS, 0.0632 µM | 96 | 95.1 | 98
HPLM + 10% dialyzed FBS, 0.19 µM | 92.9 | 95.7 | 93.3
HPLM + 10% dialyzed FBS, 0.569 µM | 98.7 | 93.1 | 89.1
HPLM + 10% dialyzed FBS, 1.71 µM | 85 | 88.2 | 96
HPLM + 10% dialyzed FBS, 5.12 µM | 78.9 | 83.2 | 77.3
HPLM + 10% dialyzed FBS, 15.4 µM | 50.1 | 59.5 | 48.9
HPLM + 10% dialyzed FBS, 46.1 µM | 53.5 | 49 | 44.2
RPMI 5 mM glucose + 10% FBS, 0.000781 µM | 87.2 | 91.2 | 130
RPMI 5 mM glucose + 10% FBS, 0.00234 µM | 98.8 | 96.3 | 119
RPMI 5 mM glucose + 10% FBS, 0.00702 µM | 91.5 | 92.4 | 118
RPMI 5 mM glucose + 10% FBS, 0.0211 µM | 90.9 | 92.5 | 129
RPMI 5 mM glucose + 10% FBS, 0.0632 µM | 85 | 95.6 | 116
RPMI 5 mM glucose + 10% FBS, 0.19 µM | 87.9 | 87 | 115
RPMI 5 mM glucose + 10% FBS, 0.569 µM | 88.6 | 96.7 | 110
RPMI 5 mM glucose + 10% FBS, 1.71 µM | 87.7 | 75.9 | 123
RPMI 5 mM glucose + 10% FBS, 5.12 µM | 78.1 | 71.9 | 97.4
RPMI 5 mM glucose + 10% FBS, 15.4 µM | 75.1 | 49.2 | 61.1
RPMI 5 mM glucose + 10% FBS, 46.1 µM | 59.8 | 45.5 | 49.8
RPMI 5 mM glucose + 10% dialyzed FBS, 0.000781 µM | 97.5 | 85.8 | 91.7
RPMI 5 mM glucose + 10% dialyzed FBS, 0.00234 µM | 97.1 | 92.4 | 106
RPMI 5 mM glucose + 10% dialyzed FBS, 0.00702 µM | 89.7 | 77.3 | 90.3
RPMI 5 mM glucose + 10% dialyzed FBS, 0.0211 µM | 98.3 | 95 | 87.9
RPMI 5 mM glucose + 10% dialyzed FBS, 0.0632 µM | 96.5 | 86.3 | 90.3
RPMI 5 mM glucose + 10% dialyzed FBS, 0.19 µM | 86.3 | 83.8 | 90.3
RPMI 5 mM glucose + 10% dialyzed FBS, 0.569 µM | 93.2 | 88.5 | 96.6
RPMI 5 mM glucose + 10% dialyzed FBS, 1.71 µM | 81.7 | 77.4 | 88.3
RPMI 5 mM glucose + 10% dialyzed FBS, 5.12 µM | 79.9 | 69.2 | 77.6
RPMI 5 mM glucose + 10% dialyzed FBS, 15.4 µM | 65.2 | 54.3 | 44.7
RPMI 5 mM glucose + 10% dialyzed FBS, 46.1 µM | 46.1 | 38.4 | 41.8

AUC of viability dose-response curve
Details | NOMO1 [6] | P12-Ichikawa [4] | SEM cells [5]
HPLM + 10% dialyzed FBS | 410 | 419 | 426
RPMI 5 mM glucose + 10% FBS | 408 | 394 | 430
RPMI 5 mM glucose + 10% dialyzed FBS | 411 | 375 | 400

CC(=O)Oc1ccccc1C(=O)O
cell viability [%]
Details | NOMO1 [3] | P12-Ichikawa [1] | SEM cells [2]
HPLM + 10% dialyzed FBS, 0.000781 µM | 106 | 99.8 | 104
HPLM + 10% dialyzed FBS, 0.00234 µM | 107 | 96.4 | 99.4
HPLM + 10% dialyzed FBS, 0.00702 µM | 104 | 102 | 105
HPLM + 10% dialyzed FBS, 0.0211 µM | 105 | 93.9 | 106
HPLM + 10% dialyzed FBS, 0.0632 µM | 115 | 101 | 102
HPLM + 10% dialyzed FBS, 0.19 µM | 107 | 101 | 106
HPLM + 10% dialyzed FBS, 0.569 µM | 107 | 96.6 | 105
HPLM + 10% dialyzed FBS, 1.71 µM | 99.2 | 95.5 | 97.3
HPLM + 10% dialyzed FBS, 5.12 µM | 88 | 90.3 | 88.2
HPLM + 10% dialyzed FBS, 15.4 µM | 98.9 | 96.4 | 99.9
HPLM + 10% dialyzed FBS, 46.1 µM | 103 | 101 | 96.7
RPMI 5 mM glucose + 10% FBS, 0.000781 µM | 93.8 | 106 | 110
RPMI 5 mM glucose + 10% FBS, 0.00234 µM | 95.9 | 101 | 104
RPMI 5 mM glucose + 10% FBS, 0.00702 µM | 92.9 | 104 | 100
RPMI 5 mM glucose + 10% FBS, 0.0211 µM | 88.4 | 98.6 | 120
RPMI 5 mM glucose + 10% FBS, 0.0632 µM | 97.9 | 101 | 107
RPMI 5 mM glucose + 10% FBS, 0.19 µM | 87.4 | 86.5 | 104
RPMI 5 mM glucose + 10% FBS, 0.569 µM | 95.2 | 87.3 | 120
RPMI 5 mM glucose + 10% FBS, 1.71 µM | 106 | 105 | 111
RPMI 5 mM glucose + 10% FBS, 5.12 µM | 88.3 | 95.9 | 99.3
RPMI 5 mM glucose + 10% FBS, 15.4 µM | 101 | 96.4 | 105
RPMI 5 mM glucose + 10% FBS, 46.1 µM | 90.4 | 99.3 | 95.1
RPMI 5 mM glucose + 10% dialyzed FBS, 0.000781 µM | 97.7 | 97.2 | 102
RPMI 5 mM glucose + 10% dialyzed FBS, 0.00234 µM | 104 | 97.5 | 99.4
RPMI 5 mM glucose + 10% dialyzed FBS, 0.00702 µM | 106 | 98.7 | 109
RPMI 5 mM glucose + 10% dialyzed FBS, 0.0211 µM | 109 | 105 | 111
RPMI 5 mM glucose + 10% dialyzed FBS, 0.0632 µM | 110 | 101 | 108
RPMI 5 mM glucose + 10% dialyzed FBS, 0.19 µM | 93.4 | 93.6 | 102
RPMI 5 mM glucose + 10% dialyzed FBS, 0.569 µM | 91.8 | 89.2 | 113
RPMI 5 mM glucose + 10% dialyzed FBS, 1.71 µM | 105 | 99.6 | 108
RPMI 5 mM glucose + 10% dialyzed FBS, 5.12 µM | 88.4 | 93.2 | 108
RPMI 5 mM glucose + 10% dialyzed FBS, 15.4 µM | 94.9 | 104 | 100
RPMI 5 mM glucose + 10% dialyzed FBS, 46.1 µM | 96.6 | 103 | 111

AUC of viability dose-response curve
Details | NOMO1 [6] | P12-Ichikawa [4] | SEM cells [5]
HPLM + 10% dialyzed FBS | 461 | 466 | 463
RPMI 5 mM glucose + 10% FBS | 450 | 450 | 466
RPMI 5 mM glucose + 10% dialyzed FBS | 452 | 450 | 469

CC(=O)N(C)c1cccc(-c2ccnc3c(C(=O)c4cccs4)cnn23)c1
cell viability [%]
Details | NOMO1 [3] | P12-Ichikawa [1] | SEM cells [2]
HPLM + 10% dialyzed FBS, 0.000781 µM | 110 | 103 | 99.9
HPLM + 10% dialyzed FBS, 0.00234 µM | 107 | 115 | 88.7
HPLM + 10% dialyzed FBS, 0.00702 µM | 110 | 109 | 104
HPLM + 10% dialyzed FBS, 0.0211 µM | 77.7 | 101 | 37.5
HPLM + 10% dialyzed FBS, 0.0632 µM | 99.4 | 108 | 98.7
HPLM + 10% dialyzed FBS, 0.19 µM | 94.8 | 110 | 99.4
HPLM + 10% dialyzed FBS, 0.569 µM | 104 | 99.8 | 107
HPLM + 10% dialyzed FBS, 1.71 µM | 119 | 120 | 103
HPLM + 10% dialyzed FBS, 5.12 µM | 97.5 | 103 | 110
HPLM + 10% dialyzed FBS, 15.4 µM | 113 | 99.3 | 90
HPLM + 10% dialyzed FBS, 46.1 µM | 95.2 | 94.5 | 91.7
RPMI 5 mM glucose + 10% FBS, 0.000781 µM | 95.6 | 106 | 108
RPMI 5 mM glucose + 10% FBS, 0.00234 µM | 104 | 96.8 | 107
RPMI 5 mM glucose + 10% FBS, 0.00702 µM | 100 | 88.5 | 95.5
RPMI 5 mM glucose + 10% FBS, 0.0211 µM | 92.6 | 80.9 | 37.7
RPMI 5 mM glucose + 10% FBS, 0.0632 µM | 99.5 | 102 | 112
RPMI 5 mM glucose + 10% FBS, 0.19 µM | 104 | 101 | 101
RPMI 5 mM glucose + 10% FBS, 0.569 µM | 98 | 107 | 94.1
RPMI 5 mM glucose + 10% FBS, 1.71 µM | 100 | 90.5 | 98.5
RPMI 5 mM glucose + 10% FBS, 5.12 µM | 102 | 95.8 | 101
RPMI 5 mM glucose + 10% FBS, 15.4 µM | 94.5 | 88.1 | 98.5
RPMI 5 mM glucose + 10% FBS, 46.1 µM | 90.1 | 90.2 | 97
RPMI 5 mM glucose + 10% dialyzed FBS, 0.000781 µM | 92.8 | 105 | 104
RPMI 5 mM glucose + 10% dialyzed FBS, 0.00234 µM | 103 | 98.7 | 99.7
RPMI 5 mM glucose + 10% dialyzed FBS, 0.00702 µM | 87.2 | 105 | 87
RPMI 5 mM glucose + 10% dialyzed FBS, 0.0211 µM | 73.7 | 88 | 46.9
RPMI 5 mM glucose + 10% dialyzed FBS, 0.0632 µM | 97.9 | 93.9 | 100
RPMI 5 mM glucose + 10% dialyzed FBS, 0.19 µM | 89 | 103 | 101
RPMI 5 mM glucose + 10% dialyzed FBS, 0.569 µM | 99.4 | 107 | 102
RPMI 5 mM glucose + 10% dialyzed FBS, 1.71 µM | 87.2 | 89.7 | 109
RPMI 5 mM glucose + 10% dialyzed FBS, 5.12 µM | 95.6 | 95 | 118
RPMI 5 mM glucose + 10% dialyzed FBS, 15.4 µM | 99.6 | 90.3 | 112
RPMI 5 mM glucose + 10% dialyzed FBS, 46.1 µM | 82.2 | 92 | 99.6

AUC of viability dose-response curve
Details | NOMO1 [6] | P12-Ichikawa [4] | SEM cells [5]
HPLM + 10% dialyzed FBS | 477 | 458 | 447
RPMI 5 mM glucose + 10% FBS | 470 | 454 | 456
RPMI 5 mM glucose + 10% dialyzed FBS | 437 | 453 | 439

From the supplement of paper PMC11451515
